According to publication PMC2954295 (Chemistry & Biology, 2010):
pKi: −log10 of the molar value.

How the values were obtained:
human OGA (O-GlcNAcase) = target: T1, human OGA (O-GlcNAcase) (Homo sapiens, UniProt O60502); experiment: continuous UV/Vis assay with pNP-GlcNAc substrate, recombinant enzyme; assay type: biochemical
T1 sequence (O60502 1-916): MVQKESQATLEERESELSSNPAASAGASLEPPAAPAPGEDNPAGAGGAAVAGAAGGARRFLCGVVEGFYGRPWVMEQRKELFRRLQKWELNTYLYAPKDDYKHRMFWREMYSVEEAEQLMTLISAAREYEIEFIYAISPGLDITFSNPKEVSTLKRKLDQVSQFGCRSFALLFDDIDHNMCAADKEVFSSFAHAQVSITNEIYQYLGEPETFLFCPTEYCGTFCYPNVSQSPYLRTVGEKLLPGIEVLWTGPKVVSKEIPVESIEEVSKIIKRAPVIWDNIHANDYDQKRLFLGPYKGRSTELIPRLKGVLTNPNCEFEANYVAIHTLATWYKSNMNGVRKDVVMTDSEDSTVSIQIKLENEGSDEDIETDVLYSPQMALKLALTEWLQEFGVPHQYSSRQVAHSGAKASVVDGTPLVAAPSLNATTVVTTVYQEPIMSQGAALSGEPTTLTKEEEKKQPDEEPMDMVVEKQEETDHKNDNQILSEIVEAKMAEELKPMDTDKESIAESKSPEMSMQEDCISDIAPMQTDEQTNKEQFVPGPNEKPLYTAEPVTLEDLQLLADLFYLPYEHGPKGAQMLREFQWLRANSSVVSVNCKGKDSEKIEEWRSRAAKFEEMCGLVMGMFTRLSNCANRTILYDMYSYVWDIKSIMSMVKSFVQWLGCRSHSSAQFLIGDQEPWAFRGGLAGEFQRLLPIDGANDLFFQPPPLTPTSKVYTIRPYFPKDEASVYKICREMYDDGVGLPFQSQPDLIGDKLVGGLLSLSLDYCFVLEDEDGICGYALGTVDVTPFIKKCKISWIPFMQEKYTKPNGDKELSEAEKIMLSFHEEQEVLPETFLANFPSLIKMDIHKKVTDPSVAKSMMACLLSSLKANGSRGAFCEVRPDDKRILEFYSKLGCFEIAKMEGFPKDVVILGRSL

human HexB = human HexB (Homo sapiens, UniProt P07686); experiment: inhibition kinetics with pNP-GlcNAc substrate, Lineweaver-Burk; assay type: biochemical
Chain of human HexB (P07686 122-311): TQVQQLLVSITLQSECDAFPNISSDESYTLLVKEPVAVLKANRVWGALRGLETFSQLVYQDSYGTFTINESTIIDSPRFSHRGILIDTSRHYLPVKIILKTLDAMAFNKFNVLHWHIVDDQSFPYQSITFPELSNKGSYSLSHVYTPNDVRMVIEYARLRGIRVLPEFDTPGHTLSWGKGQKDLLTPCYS
Chain of human HexB (P07686 315-556): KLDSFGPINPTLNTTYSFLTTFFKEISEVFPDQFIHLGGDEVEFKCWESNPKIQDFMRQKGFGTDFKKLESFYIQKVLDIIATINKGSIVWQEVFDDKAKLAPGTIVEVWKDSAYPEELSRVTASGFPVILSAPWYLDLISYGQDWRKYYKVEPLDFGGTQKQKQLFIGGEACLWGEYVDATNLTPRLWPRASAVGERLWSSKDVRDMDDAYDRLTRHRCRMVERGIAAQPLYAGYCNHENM

For `CC(=O)N[C@H]1CN2CC[C@H](O)[C@@H]2[C@@H](O)[C@@H]1O` [6-Ac-Cas], the pKi (human OGA (O-GlcNAcase)) was 6.52 and the pKi (human HexB) was 6.60.
